Reference: ChEMBL document CHEMBL5107957, “Trends in targeting Bcl-2 anti-apoptotic proteins for cancer treatment” (Eur J Med Chem, 2022)
Blank lines part the entries; values can stand above or below the compound they belong to.

Columns and labels:
[1] = molecular target: T1, Apoptosis regulator Bcl-2 (Homo sapiens, UniProt P10415); experiment: Binding affinity to human Bcl-2 assessed as inhibition constant incubated for 15 mins by competition fluorescence polarization assay
Bcl-2-like protein 1 [2] = molecular target: T2, Bcl-2-like protein 1 (Homo sapiens, UniProt Q07817); experiment: Binding affinity to human Bcl-xL assessed as inhibition constant incubated for 15 mins by competition fluorescence polarization assay
T2 sequence (Q07817 whole entry): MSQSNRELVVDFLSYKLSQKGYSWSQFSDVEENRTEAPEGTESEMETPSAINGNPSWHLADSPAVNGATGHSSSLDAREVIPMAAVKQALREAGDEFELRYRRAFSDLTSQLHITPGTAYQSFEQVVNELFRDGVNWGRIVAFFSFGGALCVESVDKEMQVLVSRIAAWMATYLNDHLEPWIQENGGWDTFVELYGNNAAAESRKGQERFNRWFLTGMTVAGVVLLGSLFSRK

[3] = molecular target: T3, Induced myeloid leukemia cell differentiation protein Mcl-1 (Homo sapiens, UniProt Q07820); experiment: Binding affinity to human Mcl-1 assessed as inhibition constant incubated for 15 mins by competition fluorescence polarization assay
T3 sequence (Q07820 whole entry): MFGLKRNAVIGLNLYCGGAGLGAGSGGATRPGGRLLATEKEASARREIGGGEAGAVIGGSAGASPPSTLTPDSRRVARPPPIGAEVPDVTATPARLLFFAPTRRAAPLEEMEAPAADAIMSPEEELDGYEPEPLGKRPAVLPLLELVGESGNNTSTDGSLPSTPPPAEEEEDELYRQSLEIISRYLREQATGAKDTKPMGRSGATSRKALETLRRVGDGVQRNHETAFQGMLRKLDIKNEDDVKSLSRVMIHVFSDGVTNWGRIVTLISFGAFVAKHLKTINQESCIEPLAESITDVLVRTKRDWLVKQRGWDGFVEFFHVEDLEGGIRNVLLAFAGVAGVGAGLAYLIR

MOLT-4 = experiment: Cytotoxicity against human MOLT-4 cells assessed as cell growth inhibition incubated for 72 hrs; assay type: functional, cell-based; details: MOLT-4, 72 h
[4] = Cytotoxicity against human platelets assessed as cell growth inhibition incubated for 24 hrs; assay type: toxicity, cell-based, Platelet
[5] = molecular target: T4, von Hippel-Lindau disease tumor suppressor/Bcl-2-like protein 1 (Homo sapiens, UniProt P40337+Q07817); experiment: PROTAC activity at VHL/Bcl-xL in human MOLT-4 cells assessed as induction of Bcl-xL degradation incubated for 16 hrs by immunoblot assay; assay type: cell-based
T4 sequence (Q07817 whole entry): as the sequence (Q07817 whole entry) above
T4 sequence (P40337 whole entry): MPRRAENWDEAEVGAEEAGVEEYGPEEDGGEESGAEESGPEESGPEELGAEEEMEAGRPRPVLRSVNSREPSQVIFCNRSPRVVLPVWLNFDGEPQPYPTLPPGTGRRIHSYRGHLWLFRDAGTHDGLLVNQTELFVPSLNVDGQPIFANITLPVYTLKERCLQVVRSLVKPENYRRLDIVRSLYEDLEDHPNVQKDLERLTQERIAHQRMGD

[6] = molecular target: T5, von Hippel-Lindau disease tumor suppressor/Bcl-2-like protein 1 (Homo sapiens) (UniProt Q07817+P40337); experiment: PROTAC activity at VHL/Bcl-xL in human MOLT-4 cells assessed as induction of Bcl-xL degradation incubated for 16 hrs by immunoblot assay relative to control; assay type: cell-based
T5 sequence (P40337 whole entry, looked up): as the sequence (P40337 whole entry) above
T5 sequence (Q07817 whole entry, looked up): as the sequence (Q07817 whole entry) above

[7] = Binding affinity to recombinant Bcl-2 D129L mutant (unknown origin) using peptide probe incubated for 2 hrs by fluorescence based assay; design: species or system Homo sapiens
[8] = Binding affinity to recombinant Bcl-2 V113G mutant (unknown origin) using peptide probe incubated for 2 hrs by fluorescence based assay; design: species or system Homo sapiens
Bcl-2-like protein 1 [9] = molecular target: T2, Bcl-2-like protein 1; experiment: Binding affinity to Bcl-xL (unknown origin) assessed as inhibition constant by fluorescence polarization assay
[10] = molecular target: T1, Apoptosis regulator Bcl-2; experiment: Binding affinity to Bcl-2 (unknown origin) assessed as inhibition constant
Bcl-2-like protein 1 [11] = molecular target: T2, Bcl-2-like protein 1; experiment: Binding affinity to Bcl-xL (unknown origin) assessed as inhibition constant
[12] = molecular target: T4, von Hippel-Lindau disease tumor suppressor/Bcl-2-like protein 1; experiment: PROTAC activity at VHL/Bcl-xL in human THP-1 cells assessed as induction of Bcl-xL degradation incubated for 24 hrs by Western blot assay; assay type: cell-based
[13] = molecular target: T5, von Hippel-Lindau disease tumor suppressor/Bcl-2-like protein 1 (Homo sapiens); experiment: PROTAC activity at VHL/Bcl-xL in human THP-1 cells assessed as induction of Bcl-xL degradation incubated for 24 hrs by Western blot assay relative to control; assay type: cell-based
[14] = molecular target: T1, Apoptosis regulator Bcl-2; experiment: Displacement of synthetic peptide tracer conjugated to fluorescein isothiocyanate from C-terminal 6xHis-tagged Bcl-2 (1 to 204 residues) (unknown origin) preincubated for 1 hr followed by tracer addition measured after 20 mins by fluorescence polarization assay
Bcl-2-like protein 1 [15] = molecular target: T2, Bcl-2-like protein 1; experiment: Displacement of synthetic peptide tracer conjugated to fluorescein isothiocyanate from C-terminal 6xHis-tagged Bcl-xL (1 to 209 residues) (unknown origin) preincubated for 1 hr followed by tracer addition measured after 20 mins by fluorescence polarization assay
[16] = Solubility of the compound in aqueous buffer at physiological pH; assay type: physicochemical
[17] = molecular target: Protein cereblon/Bcl-2-like protein 1 (Homo sapiens) (UniProt Q07817+Q96SW2); experiment: PROTAC activity at CRBN/Bcl-xL in human MOLT-4 cells assessed as induction of Bcl-xL degradation at 100 nM incubated for 16 hrs by Western blot assay relative to control; assay type: cell-based
Chain of Protein cereblon/Bcl-2-like protein 1 (Homo sapiens) (Q07817 whole entry, looked up): as the sequence (Q07817 whole entry) above
Chain of Protein cereblon/Bcl-2-like protein 1 (Homo sapiens) (Q96SW2 whole entry, looked up): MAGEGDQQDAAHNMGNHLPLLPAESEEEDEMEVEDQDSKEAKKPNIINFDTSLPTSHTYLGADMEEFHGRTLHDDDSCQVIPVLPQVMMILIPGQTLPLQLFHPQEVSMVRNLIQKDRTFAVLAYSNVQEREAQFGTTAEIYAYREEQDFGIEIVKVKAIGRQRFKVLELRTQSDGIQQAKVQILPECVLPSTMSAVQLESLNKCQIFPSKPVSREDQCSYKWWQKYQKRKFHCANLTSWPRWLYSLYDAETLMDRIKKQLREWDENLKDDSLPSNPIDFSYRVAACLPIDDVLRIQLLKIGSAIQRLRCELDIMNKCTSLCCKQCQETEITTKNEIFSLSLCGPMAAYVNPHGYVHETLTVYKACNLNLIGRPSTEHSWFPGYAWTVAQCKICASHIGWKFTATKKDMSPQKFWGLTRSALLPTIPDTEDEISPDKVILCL

[18] = Selectivity ratio of IC50 for human platelets to IC50 for human MOLT-4 cells; assay type: toxicity; details: human platelets and human MOLT-4 cells
[19] = molecular target: T1, Apoptosis regulator Bcl-2; experiment: Binding affinity to Bcl-2 (unknown origin) assessed as inhibition constant using 5-FAM-QEDIIRNIARHLAQVGDSMDRSIPPG as substrate
[20] = molecular target: T3, Induced myeloid leukemia cell differentiation protein Mcl-1; experiment: Binding affinity to Mcl-1 (unknown origin) assessed as inhibition constant using 5-FAM-QEDIIRNIARHLAQVGDSMDRSIPPG as substrate

T1 sequence (P10415 whole entry): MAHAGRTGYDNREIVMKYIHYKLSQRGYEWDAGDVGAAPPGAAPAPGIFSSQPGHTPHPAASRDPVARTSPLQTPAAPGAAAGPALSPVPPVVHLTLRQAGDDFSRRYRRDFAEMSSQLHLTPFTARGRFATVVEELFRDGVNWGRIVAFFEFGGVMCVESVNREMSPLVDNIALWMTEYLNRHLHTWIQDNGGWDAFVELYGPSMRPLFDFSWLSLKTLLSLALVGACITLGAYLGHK

Ki [1]: 3.3 nM | Ki (Bcl-2-like protein 1 [2]): > 500 nM | Ki [3]: > 550 nM
SMILES: CCN(CC)C[C@@H](O)CNc1ccc(NC[C@H]2CO2)c2c1C(=O)c1ccccc1C2=O

SMILES: CN(C)CC#Cc1ccc(OCCCc2sc(N3CCc4cccc(C(=O)Nc5nc6ccccc6s5)c4C3)nc2C(=O)O)c(F)c1 [A-1155463]
IC50 (MOLT-4): 6.2 nM | IC50 at 24 h [4]: 7.1 nM

EC50 [5]: 63 nM | Emax [6]: 90.8%
SMILES: Cc1ncsc1-c1ccc([C@H](C)NC(=O)[C@@H]2C[C@@H](O)CN2C(=O)[C@@H](NC(=O)CCCCCC(=O)N2CCN(CC[C@H](CSc3ccccc3)Nc3ccc(S(=O)(=O)NC(=O)c4ccc(N5CCN(CC6=C(c7ccc(Cl)cc7)CCC(C)(C)C6)CC5)cc4)cc3S(=O)(=O)C(F)(F)F)CC2)C(C)(C)C)cc1 [DT-2216]

Ki [7]: 1 nM | Ki [8]: 9.6 nM
SMILES: Cc1c(N(C(=O)c2cc(-c3cc(Cl)ccc3C(=O)N3Cc4ccccc4C[C@H]3CN3CCOCC3)n(C)c2C)c2ccc(O)cc2)cc(C#N)n1C [VOB-560]

Ki (Bcl-2-like protein 1 [9]): < 1 nM
SMILES: Cc1c(S(C)(=O)=O)c(-c2cc(F)cc(N3CCN(c4ccc(NS(=O)(=O)c5ccc(N[C@H](CCN6CCC(O)CC6)CSc6ccccc6)c(S(=O)(=O)C(F)(F)F)c5)cc4)CC3)c2)c(-c2ccc(Cl)cc2)n1C(C)C

Ki [10]: < 1 nM | Ki (Bcl-2-like protein 1 [11]): < 1 nM
SMILES: Cc1c(S(C)(=O)=O)c(-c2cc(F)cc(N3CCN(c4ccc(NS(=O)(=O)c5ccc(N[C@H](CCN6CCC(C(=O)OCCCP(=O)(O)O)CC6)CSc6ccccc6)c(S(=O)(=O)C(F)(F)F)c5)cc4)CC3)c2)c(-c2ccc(Cl)cc2)n1C(C)C [PELCITOCLAX]

EC50 [12]: 4.8 nM | Emax [13]: 76%
SMILES: Cc1ncsc1-c1ccc(CNC(=O)[C@@H]2C[C@@H](O)CN2C(=O)[C@@H](NC(=O)CCOCCOCCOCCOCCOCCOCC#Cc2ccc(OCCCc3sc(N4CCc5cccc(C(=O)Nc6nc7ccccc7s6)c5C4)nc3C(=O)O)cc2)C(C)(C)C)cc1

IC50 [14]: 3.9 nM | IC50 (Bcl-2-like protein 1 [15]): 4.5 nM | solubility [16]: < 1 µg/mL
SMILES: CN(CCO)CC[C@H](CSc1ccccc1)Nc1ccc(S(=O)(=O)NC(=O)c2ccc(N3CCC([C@@H](O)c4ccccc4-c4ccc(Cl)cc4)CC3)cc2)cc1S(=O)(=O)C(F)(F)F

Emax [17]: 85%
SMILES: O=C1CCC(N2C(=O)c3cccc(NCCOCCOCc4cn(CCCC(=O)N5CCN(CC#Cc6ccc(OCCCc7sc(N8CCc9cccc(C(=O)Nc%10nc%11ccccc%11s%10)c9C8)nc7C(=O)O)c(F)c6)CC5)nn4)c3C2=O)C(=O)N1 (stereo not drawn)
IC50 (MOLT-4): 51 nM | IC50 at 24 h [4]: 1140 nM | selectivity ratio [18]: 22

Ki [19]: 0.45 nM | Ki [20]: 0.35 nM
SMILES: N#Cc1ccc(CN2Cc3c(cc(Br)c(OCc4ccc(-c5ccccc5)cc4)c3Br)C[C@H]2C(=O)NS(=O)(=O)c2ccc(Cl)c([N+](=O)[O-])c2)cc1
